Columns and labels:
[1] = target: Fanconi anemia group D2 protein (Homo sapiens) (UniProt Q9BXW9); further: assay method not described here
[2] = target: Dihydrolipoyl dehydrogenase, mitochondrial (Homo sapiens) (UniProt P09622); further: assay method not described here
[3] = target: Receptor-interacting serine/threonine-protein kinase 2 (Homo sapiens) (UniProt O43353); further: assay method not described here
[4] = target: Proteasomal ubiquitin receptor ADRM1 (Homo sapiens) (UniProt Q16186); further: assay method not described here
[5] = target: ATP synthase F(0) complex subunit a (Homo sapiens) (UniProt P00846); further: assay method not described here
[6] = target: Acidic leucine-rich nuclear phosphoprotein 32 family member B (Homo sapiens) (UniProt Q92688); further: assay method not described here
[7] = target: Acidic fibroblast growth factor intracellular-binding protein (Homo sapiens) (UniProt O43427); further: assay method not described here
[8] = target: Apoptosis-inducing factor 1, mitochondrial (Homo sapiens) (UniProt O95831); further: assay method not described here
Chain of Apoptosis-inducing factor 1, mitochondrial (Homo sapiens) (O95831 whole entry, the tested form may be a part): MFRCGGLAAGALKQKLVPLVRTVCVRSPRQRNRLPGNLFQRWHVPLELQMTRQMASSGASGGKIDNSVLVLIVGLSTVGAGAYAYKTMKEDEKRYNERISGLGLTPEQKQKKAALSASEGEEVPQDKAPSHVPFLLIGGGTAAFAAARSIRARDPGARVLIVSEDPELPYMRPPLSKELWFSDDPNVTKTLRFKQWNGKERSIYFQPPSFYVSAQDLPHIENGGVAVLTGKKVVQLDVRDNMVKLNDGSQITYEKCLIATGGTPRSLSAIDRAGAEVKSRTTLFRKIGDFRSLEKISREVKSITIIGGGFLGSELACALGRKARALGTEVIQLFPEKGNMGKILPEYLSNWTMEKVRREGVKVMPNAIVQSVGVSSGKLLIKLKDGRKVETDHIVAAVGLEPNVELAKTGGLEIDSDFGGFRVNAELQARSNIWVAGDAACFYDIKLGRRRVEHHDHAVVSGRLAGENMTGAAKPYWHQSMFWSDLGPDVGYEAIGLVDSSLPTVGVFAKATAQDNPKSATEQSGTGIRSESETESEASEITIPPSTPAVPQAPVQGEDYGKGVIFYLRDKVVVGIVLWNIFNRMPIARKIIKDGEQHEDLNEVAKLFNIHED

[9] = target: TBC1 domain family member 5 (Homo sapiens) (UniProt Q92609); further: assay method not described here
[10] = target: Hexokinase-1 (Homo sapiens) (UniProt P19367); further: assay method not described here
[11] = target: Mitogen-activated protein kinase 15 (Homo sapiens) (UniProt Q8TD08); further: assay method not described here
Chain of Mitogen-activated protein kinase 15 (Homo sapiens) (Q8TD08 whole entry): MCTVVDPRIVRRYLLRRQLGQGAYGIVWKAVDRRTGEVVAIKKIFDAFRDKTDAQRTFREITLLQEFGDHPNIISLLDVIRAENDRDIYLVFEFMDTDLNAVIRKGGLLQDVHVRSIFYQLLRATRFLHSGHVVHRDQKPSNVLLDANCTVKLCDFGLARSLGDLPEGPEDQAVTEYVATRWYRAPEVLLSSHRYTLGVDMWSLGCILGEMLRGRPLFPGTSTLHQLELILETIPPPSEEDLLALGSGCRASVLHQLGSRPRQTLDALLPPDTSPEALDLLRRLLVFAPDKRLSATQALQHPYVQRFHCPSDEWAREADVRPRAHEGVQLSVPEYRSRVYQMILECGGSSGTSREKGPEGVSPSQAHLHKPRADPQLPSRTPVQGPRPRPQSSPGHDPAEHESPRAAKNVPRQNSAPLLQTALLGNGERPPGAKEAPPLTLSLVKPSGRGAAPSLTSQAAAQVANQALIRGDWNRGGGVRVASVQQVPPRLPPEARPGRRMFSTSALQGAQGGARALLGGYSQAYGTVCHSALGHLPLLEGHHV

[12] = target: 116 kDa U5 small nuclear ribonucleoprotein component (Homo sapiens) (UniProt Q15029); further: assay method not described here
[13] = target: Tropomyosin alpha-3 chain (Homo sapiens) (UniProt P06753); further: assay method not described here
[14] = target: Conserved oligomeric Golgi complex subunit 1 (Homo sapiens) (UniProt Q8WTW3); further: assay method not described here
Chain of Conserved oligomeric Golgi complex subunit 1 (Homo sapiens) (Q8WTW3 whole entry, one chain of several): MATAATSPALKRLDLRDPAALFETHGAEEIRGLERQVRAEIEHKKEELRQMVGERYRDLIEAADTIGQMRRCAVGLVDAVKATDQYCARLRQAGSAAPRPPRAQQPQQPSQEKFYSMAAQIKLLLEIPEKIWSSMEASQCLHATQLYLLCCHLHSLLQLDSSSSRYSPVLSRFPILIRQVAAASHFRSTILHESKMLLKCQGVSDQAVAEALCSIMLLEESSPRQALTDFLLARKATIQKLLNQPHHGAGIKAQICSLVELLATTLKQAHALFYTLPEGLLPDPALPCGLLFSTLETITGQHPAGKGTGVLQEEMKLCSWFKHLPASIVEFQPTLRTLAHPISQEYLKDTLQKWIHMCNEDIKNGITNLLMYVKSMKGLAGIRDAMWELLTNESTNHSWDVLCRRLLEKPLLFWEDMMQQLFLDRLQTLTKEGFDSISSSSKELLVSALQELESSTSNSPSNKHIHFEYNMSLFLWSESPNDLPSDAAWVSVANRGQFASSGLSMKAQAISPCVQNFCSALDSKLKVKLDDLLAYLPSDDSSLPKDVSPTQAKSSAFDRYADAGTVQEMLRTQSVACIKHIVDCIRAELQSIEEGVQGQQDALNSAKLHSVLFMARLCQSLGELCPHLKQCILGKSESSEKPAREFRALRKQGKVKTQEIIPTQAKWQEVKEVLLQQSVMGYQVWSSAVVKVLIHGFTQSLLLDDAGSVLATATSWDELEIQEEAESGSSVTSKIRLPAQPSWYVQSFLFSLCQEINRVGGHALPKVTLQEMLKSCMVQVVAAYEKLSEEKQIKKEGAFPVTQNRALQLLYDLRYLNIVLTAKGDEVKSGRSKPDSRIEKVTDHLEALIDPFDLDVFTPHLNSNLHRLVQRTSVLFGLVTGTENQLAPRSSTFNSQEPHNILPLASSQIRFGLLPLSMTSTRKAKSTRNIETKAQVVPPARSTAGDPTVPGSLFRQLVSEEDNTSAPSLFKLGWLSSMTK

[15] = target: Fatty acyl-CoA reductase 1 (Homo sapiens) (UniProt Q8WVX9); further: assay method not described here
[16] = target: Membrane-bound acylglycerophosphatidylinositol O-acyltransferase MBOAT7 (Homo sapiens) (UniProt Q96N66); further: assay method not described here
[17] = target: Protein FAM83E (Homo sapiens) (UniProt Q2M2I3); further: assay method not described here
[18] = target: Calcium/calmodulin-dependent protein kinase type II subunit gamma (Homo sapiens) (UniProt Q13555); further: assay method not described here
[19] = target: Phosphatidylserine synthase 1 (Homo sapiens) (UniProt P48651); further: assay method not described here
[20] = target: Equilibrative nucleobase transporter 1 (Homo sapiens) (UniProt Q8NBI5); further: assay method not described here
[21] = target: Protein-tyrosine kinase 6 (Homo sapiens) (UniProt Q13882); further: assay method not described here
Chain of Protein-tyrosine kinase 6 (Homo sapiens) (Q13882 whole entry, looked up): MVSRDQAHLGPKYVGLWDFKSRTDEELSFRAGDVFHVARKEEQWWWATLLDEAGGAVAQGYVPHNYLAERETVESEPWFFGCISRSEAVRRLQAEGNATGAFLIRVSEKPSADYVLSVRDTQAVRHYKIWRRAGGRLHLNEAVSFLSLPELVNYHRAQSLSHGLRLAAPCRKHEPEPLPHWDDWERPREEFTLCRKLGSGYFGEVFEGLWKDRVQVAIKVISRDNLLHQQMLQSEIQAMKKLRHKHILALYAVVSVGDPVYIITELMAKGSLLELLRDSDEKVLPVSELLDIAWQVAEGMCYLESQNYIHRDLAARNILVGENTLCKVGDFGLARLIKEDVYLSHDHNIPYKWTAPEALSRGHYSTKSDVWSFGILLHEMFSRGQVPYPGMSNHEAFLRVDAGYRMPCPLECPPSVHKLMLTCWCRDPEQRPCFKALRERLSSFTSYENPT

[22] = target: High mobility group protein B1 (Homo sapiens) (UniProt P09429); further: assay method not described here
[23] = target: Fructose-bisphosphate aldolase A (Homo sapiens) (UniProt P04075); further: assay method not described here
[24] = target: Endoplasmin (Homo sapiens) (UniProt P14625); further: assay method not described here
[25] = target: Guanine nucleotide-binding protein G(i) subunit alpha-2 (Homo sapiens) (UniProt P04899); further: assay method not described here
Chain of Guanine nucleotide-binding protein G(i) subunit alpha-2 (Homo sapiens) (P04899 whole entry): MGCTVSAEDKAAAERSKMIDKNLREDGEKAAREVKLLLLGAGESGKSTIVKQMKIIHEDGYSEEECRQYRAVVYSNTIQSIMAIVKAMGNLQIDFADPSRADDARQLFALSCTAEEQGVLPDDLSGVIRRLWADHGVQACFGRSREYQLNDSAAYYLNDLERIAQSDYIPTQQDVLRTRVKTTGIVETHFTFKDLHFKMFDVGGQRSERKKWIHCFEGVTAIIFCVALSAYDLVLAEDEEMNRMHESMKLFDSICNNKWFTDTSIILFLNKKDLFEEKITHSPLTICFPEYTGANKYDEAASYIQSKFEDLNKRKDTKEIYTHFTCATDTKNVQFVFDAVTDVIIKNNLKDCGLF

[26] = target: X-ray repair cross-complementing protein 5 (Homo sapiens) (UniProt P13010); further: assay method not described here
[27] = target: Small ribosomal subunit protein uS8 (Homo sapiens) (UniProt P62244); further: assay method not described here
[28] = target: Cyclin-dependent kinase 5 (Homo sapiens) (UniProt Q00535); further: assay method not described here
[29] = target: Galactocerebrosidase (Homo sapiens) (UniProt P54803); further: assay method not described here
[30] = target: Aspartate--tRNA ligase, cytoplasmic (Homo sapiens) (UniProt P14868); further: assay method not described here
Chain of Aspartate--tRNA ligase, cytoplasmic (Homo sapiens) (P14868 whole entry): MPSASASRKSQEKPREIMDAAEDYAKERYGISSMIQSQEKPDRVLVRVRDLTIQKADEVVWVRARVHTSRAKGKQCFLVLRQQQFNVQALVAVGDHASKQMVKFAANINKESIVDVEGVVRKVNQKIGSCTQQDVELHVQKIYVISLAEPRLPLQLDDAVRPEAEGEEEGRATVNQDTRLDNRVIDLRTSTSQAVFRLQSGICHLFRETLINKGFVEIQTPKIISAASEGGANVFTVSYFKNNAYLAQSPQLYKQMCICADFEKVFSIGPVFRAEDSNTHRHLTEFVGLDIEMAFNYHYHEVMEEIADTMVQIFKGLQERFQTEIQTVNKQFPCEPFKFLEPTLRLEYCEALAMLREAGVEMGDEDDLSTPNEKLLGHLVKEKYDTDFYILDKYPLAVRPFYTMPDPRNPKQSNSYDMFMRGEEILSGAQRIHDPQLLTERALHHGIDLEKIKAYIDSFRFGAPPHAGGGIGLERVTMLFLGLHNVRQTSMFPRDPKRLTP

[31] = target: Thioredoxin-dependent peroxide reductase, mitochondrial (Homo sapiens) (UniProt P30048); further: assay method not described here
Chain of Thioredoxin-dependent peroxide reductase, mitochondrial (Homo sapiens) (P30048 whole entry): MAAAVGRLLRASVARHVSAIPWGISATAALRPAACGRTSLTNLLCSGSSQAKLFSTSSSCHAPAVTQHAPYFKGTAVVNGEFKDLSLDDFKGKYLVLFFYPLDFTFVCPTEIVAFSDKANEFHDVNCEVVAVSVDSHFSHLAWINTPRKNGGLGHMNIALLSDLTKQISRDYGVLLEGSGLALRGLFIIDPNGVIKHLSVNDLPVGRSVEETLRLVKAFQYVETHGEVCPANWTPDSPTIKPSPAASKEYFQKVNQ

Homo sapiens [32] = organism: Homo sapiens; further: assay method not described here
[33] = target: G1/S-specific cyclin-E1 (Homo sapiens) (UniProt P24864); further: assay method not described here
[34] = target: Ephrin type-B receptor 4 (Homo sapiens) (UniProt P54760); further: assay method not described here
Homo sapiens [35] = organism: Homo sapiens; remark: listed apart in the source; further: assay method not described here
[36] = target: Activated CDC42 kinase 1 (Homo sapiens) (UniProt Q07912); further: assay method not described here
[37] = target: 14-3-3 protein theta (Homo sapiens) (UniProt P27348); further: assay method not described here
[38] = target: Serine/threonine-protein phosphatase 2A 65 kDa regulatory subunit A alpha isoform (Homo sapiens) (UniProt P30153); further: assay method not described here
Septin-7 (Homo sapiens) = Septin-7 (Homo sapiens) (UniProt Q16181); further: assay method not described here
Chain of Septin-7 (Homo sapiens) (Q16181 whole entry): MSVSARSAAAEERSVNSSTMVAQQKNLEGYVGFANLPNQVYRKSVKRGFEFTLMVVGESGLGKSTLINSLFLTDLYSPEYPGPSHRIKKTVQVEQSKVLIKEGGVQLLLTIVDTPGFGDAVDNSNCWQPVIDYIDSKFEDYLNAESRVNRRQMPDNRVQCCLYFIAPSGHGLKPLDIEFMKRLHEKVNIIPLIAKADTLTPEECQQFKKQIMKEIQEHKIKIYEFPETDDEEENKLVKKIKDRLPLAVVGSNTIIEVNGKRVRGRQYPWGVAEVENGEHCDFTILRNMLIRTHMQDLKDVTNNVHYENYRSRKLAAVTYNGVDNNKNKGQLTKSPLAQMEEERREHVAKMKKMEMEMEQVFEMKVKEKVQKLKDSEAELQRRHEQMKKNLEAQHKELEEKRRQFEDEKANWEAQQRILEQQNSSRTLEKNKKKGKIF

[39] = target: DNA replication licensing factor MCM2 (Homo sapiens) (UniProt P49736); further: assay method not described here
[40] = target: Endoplasmic reticulum aminopeptidase 1 (Homo sapiens) (UniProt Q9NZ08); further: assay method not described here
[41] = target: Aminoacyl tRNA synthase complex-interacting multifunctional protein 1 (Homo sapiens) (UniProt Q12904); further: assay method not described here
Ephrin type-A receptor 4 = Ephrin type-A receptor 4 (Homo sapiens, UniProt P54764); assay: Inhibition of Nano Luc-fused full length C-terminal EPHA4 (unknown origin) expressed in HEK293T cells using NanoGlo as substrate incubated for 2 hrs in presence of tracer by NanoBRET assay; format: cell-based
[42] = target: Ketosamine-3-kinase (Homo sapiens) (UniProt Q9HA64); further: assay method not described here
Chain of Ketosamine-3-kinase (Homo sapiens) (Q9HA64 whole entry): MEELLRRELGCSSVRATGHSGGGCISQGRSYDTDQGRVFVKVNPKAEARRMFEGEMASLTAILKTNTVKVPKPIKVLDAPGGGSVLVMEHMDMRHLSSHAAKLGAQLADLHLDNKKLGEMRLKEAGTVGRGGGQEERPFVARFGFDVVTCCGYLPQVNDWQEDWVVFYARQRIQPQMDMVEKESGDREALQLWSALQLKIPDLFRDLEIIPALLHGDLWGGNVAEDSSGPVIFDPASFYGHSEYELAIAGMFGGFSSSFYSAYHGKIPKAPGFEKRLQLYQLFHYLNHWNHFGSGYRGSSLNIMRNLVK

[43] = target: Methionine--tRNA ligase, cytoplasmic (Homo sapiens) (UniProt P56192); further: assay method not described here
[44] = target: 26S proteasome regulatory subunit 8 (Homo sapiens) (UniProt P62195); further: assay method not described here

Chain of Dihydrolipoyl dehydrogenase, mitochondrial (Homo sapiens) (P09622 whole entry): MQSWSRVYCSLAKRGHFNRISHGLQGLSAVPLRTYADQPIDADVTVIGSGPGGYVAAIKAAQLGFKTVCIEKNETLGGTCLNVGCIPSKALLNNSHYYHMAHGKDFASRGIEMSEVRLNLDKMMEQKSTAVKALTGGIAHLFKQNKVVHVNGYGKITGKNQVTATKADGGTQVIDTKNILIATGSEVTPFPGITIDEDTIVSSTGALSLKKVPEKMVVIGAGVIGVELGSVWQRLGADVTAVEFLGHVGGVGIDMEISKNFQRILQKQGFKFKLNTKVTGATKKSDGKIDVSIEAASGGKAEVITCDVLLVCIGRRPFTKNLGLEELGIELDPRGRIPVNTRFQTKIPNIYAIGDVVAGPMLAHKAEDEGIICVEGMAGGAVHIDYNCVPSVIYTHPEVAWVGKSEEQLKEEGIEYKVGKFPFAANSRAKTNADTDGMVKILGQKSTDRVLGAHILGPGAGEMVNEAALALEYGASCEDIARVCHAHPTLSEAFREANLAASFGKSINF

**Q.** How did the ED50 [1] turn out when `Cc1ccc(C(=O)Nc2cccc(C(F)(F)F)c2)cc1Nc1nc(-c2cccnc2)nc2c1cnn2C` was run?
**A.** 1.96 µM

**Q.** What about the ED50 [2] of the same molecule?
**A.** 11.1 µM

**Q.** And the ED50 [3]?
**A.** 29.5 µM

**Q.** What about the ED50 [4] of the same molecule?
**A.** 7.09 µM

**Q.** And the ED50 [5]?
**A.** 0.677 µM

**Q.** And the ED50 [6]?
**A.** 5.15 µM

**Q.** And the ED50 [7]?
**A.** 3.14 µM

**Q.** And the ED50 [8]?
**A.** 0.00539 µM

**Q.** And the ED50 [9]?
**A.** 24 µM

**Q.** And the ED50 [10]?
**A.** 0.00555 µM

**Q.** And the ED50 [11]?
**A.** 0.026 µM

**Q.** And the ED50 [12]?
**A.** 0.108 µM

**Q.** And the ED50 [13]?
**A.** 5.57 µM

**Q.** And the ED50 [14]?
**A.** 0.0039 µM

**Q.** What about the ED50 [15] of the same molecule?
**A.** 4.69 µM

**Q.** And the ED50 [16]?
**A.** 3.4 µM

**Q.** What about the ED50 [17] of the same molecule?
**A.** 0.141 µM

**Q.** And the ED50 [18]?
**A.** 0.177 µM

**Q.** And the ED50 [19]?
**A.** 6.64 µM

**Q.** What about the ED50 [20] of the same molecule?
**A.** 12.9 µM

**Q.** What about the ED50 [21] of the same molecule?
**A.** 5.95 µM

**Q.** And the ED50 [22]?
**A.** 3.01 µM

**Q.** What about the ED50 [23] of the same molecule?
**A.** 3.97 µM

**Q.** What about the ED50 [24] of the same molecule?
**A.** 3.47 µM

**Q.** What about the ED50 [25] of the same molecule?
**A.** 0.335 µM

**Q.** And the ED50 [26]?
**A.** 0.0264 µM

**Q.** What about the ED50 [27] of the same molecule?
**A.** 0.00641 µM

**Q.** And the ED50 [28]?
**A.** 5.06 µM

**Q.** And the ED50 [29]?
**A.** 3.18 µM

**Q.** And the ED50 [30]?
**A.** 0.0564 µM

**Q.** And the ED50 [31]?
**A.** 0.164 µM

**Q.** And the ED50 (Homo sapiens [32])?
**A.** 49.3 µM

**Q.** And the ED50 [33]?
**A.** 0.103 µM

**Q.** And the ED50 [34]?
**A.** 1.4 µM

**Q.** And the ED50 (Homo sapiens [35])?
**A.** 3.14 µM

**Q.** What about the ED50 [36] of the same molecule?
**A.** 2.19 µM

**Q.** What about the ED50 [37] of the same molecule?
**A.** 0.0211 µM

**Q.** And the ED50 [38]?
**A.** 2 µM

**Q.** What about the ED50 (Septin-7 (Homo sapiens)) of the same molecule?
**A.** 3.34 µM

**Q.** And the ED50 [39]?
**A.** 3.39 µM

**Q.** And the ED50 [40]?
**A.** 6.22 µM

**Q.** What about the ED50 [41] of the same molecule?
**A.** 16.5 µM

**Q.** What about the IC50 (Ephrin type-A receptor 4) of the same molecule?
**A.** 0.0076 µM

**Q.** What about the ED50 [42] of the same molecule?
**A.** 277 µM

**Q.** And the ED50 [43]?
**A.** 0.0806 µM

**Q.** And the ED50 [44]?
**A.** 7.4 µM

**Q.** Which results are given for `Cc1ccc(C(=O)Nc2cccc(C(F)(F)F)c2)cc1Nc1nc(-c2cccnc2)nc2nn(C)cc12`?
**A.** ED50 [1]: 2.28 µM; ED50 [2]: 10.8 µM; ED50 [3]: 0.073 µM; ED50 [4]: 0.0135 µM; ED50 [5]: 0.622 µM; ED50 [6]: 10.1 µM; ED50 [7]: 0.0301 µM; ED50 [8]: 0.182 µM; ED50 [9]: 0.0265 µM; ED50 [10]: 173 µM; ED50 [11]: 0.0373 µM; ED50 [12]: 0.0593 µM; ED50 [13]: 18.9 µM; ED50 [14]: 69.8 µM; ED50 [15]: 113 µM; ED50 [16]: 0.202 µM; ED50 [17]: 155 µM; ED50 [18]: 0.0517 µM; ED50 [19]: 0.0845 µM; ED50 [20]: 33.9 µM; ED50 [21]: 68.5 µM; ED50 [22]: 0.0503 µM; ED50 [23]: 0.0716 µM; ED50 [24]: 0.0559 µM; ED50 [25]: 0.13 µM; ED50 [26]: 10.3 µM; ED50 [27]: 5.32 µM; ED50 [28]: 17.2 µM; ED50 [29]: 8.73 µM; ED50 [30]: 6.72 µM; ED50 [31]: 4.56 µM; ED50 (Homo sapiens [32]): 0.631 µM; ED50 [33]: 0.0206 µM; ED50 [34]: 2.25 µM; ED50 (Homo sapiens [35]): 9.29 µM; ED50 [36]: 10.3 µM; ED50 [37]: 1.35 µM; ED50 [38]: 203 µM; ED50 (Septin-7 (Homo sapiens)): 3.21 µM; ED50 [39]: 0.0024 µM; ED50 [40]: 8.49 µM; ED50 [41]: 0.0574 µM; IC50 (Ephrin type-A receptor 4): ~10 µM; ED50 [42]: 0.0183 µM; ED50 [43]: 6.54 µM; ED50 [44]: 0.443 µM

Source: ChEMBL document CHEMBL5649169 (ChemMedChem, 2018)
